Laboratory results: patent US6809111B2, “Prodrugs of COX-2 inhibitors” (Pharmacia Corporation, priority 2001, dated 2004)

How the values were obtained:
[1] = tested on: carrageenan-induced inflammatory response in air pouch; test: Air-pouch model of inflammation (carrageenan); format: in vivo; details: male Lewis rats
Procedure: Male Lewis rats (175-200 g) were used. Air cavities were produced by subcutaneous injection of 20 mL of sterile air into the intrascapular area of the back. An additional 10 mL of air was injected into the cavity every 3 days to keep the space open. Seven days after the initial air injection, 2 mL of a 1% solution of carrageenan (Sigma) dissolved in saline was injected directly into the pouch to produce an inflammatory response. The volume of exudate was measured […]. The differential cell count was determined by Wright-Giemsa staining. PGE2 and 6-keto-PGF1α were determined in the pouch exudates by specific ELISAs (Cayman Chemicals, Ann Arbor, Mich.).

Row | melting point [°C] | Compound | AIR POUCH TEST % Inhibition @ 20 mg/kg body weight [1] [%]
1 | 79.1 | Cc1ccc(-c2cc(C(F)(F)F)nn2-c2ccc(S(=O)(=O)N(CCO)CCO)cc2)cc1 [Example 4, N,N-bis(2-hydroxyethyl)-4-[5-(4-methylphenyl)-3-(trifluoromethyl)-1H-pyrazol-1-yl]benzenesulfonamide] | 10
2 | 57.8 | Cc1ccc(-c2cc(C(F)(F)F)nn2-c2ccc(S(=O)(=O)NCCO)cc2)cc1 [Example 3, N-(2-hydroxyethyl)-4-[5-(4-methylphenyl)-3-(trifluoromethyl)-1H1-pyrazol-1-yl]benzenesulfonamide] | 59
